Reference: US10792282B2, “Protein kinase C inhibitors and uses thereof” (Rigel Pharmaceuticals, Inc., priority 2013, dated 2020)
Where two headings read alike, the source gives them in different places.

Test system: PKC mediated IL-2 production
Test: IL-2 ELISA, human primary T cell, anti CD3+CD28+ (whole cell functional assay)
Type: cell-based
Method: Human primary T cells were prepared as follows. Fresh PBMC's from All Cells (Cat # PB002) were re-suspended in RPMI (RPMI-1640 with L-Glutamine; Mediatech, Inc., Herndon Va., cat. #10-040-CM) with 10% FBS and seeded into flasks and incubated at 37° C. for 2 hours to allow the monocytes to adhere. The non-adherent cells were then centrifuged and re-suspended in RPMI medium containing 40 U/ml IL2 and seeded into a flask pre-coated with 1 μg/ml aCD3 and 5 ug/ml aCD28 (Anti-Human CD3, BD Pharmingen Catalog #555336, Anti-Human CD28, Beckman Coulter Catalog # IM1376). The cells were stimulated for 3-4 days, then transferred to a fresh flask and maintained in RPMI (RPMI-1640 with L-Glutamine; Mediatech, Inc., Herndon Va., cat. #10-040-CM) with 10% FBS and 40 U/ml IL-2.
(§1) Human primary T cells (100,000 cells per well) were pre-incubated with or without test compound in RPMI-1640 with L-Glutamine and 10% FBS for 1 hour at 37° C. Cells were then stimulated by transferring them to round-bottom 96-well plates pre-coated with 1 μg/ml αCD3 and 5 μg/ml αCD28. For counter assay, cells were instead stimulated by adding 8× stock solutions of PMA and ionomycin in RPMI-1640 with L-Glutamine and 10% FBS (for final concentrations of 0.5 ng/ml PMA and 0.1 μM ionomycin, both from Calbiochem). Cells were incubated at 37° C. for 24 hours before 100 μL supernatants were harvested for quantification of IL-2 by ELISA using Human IL-2 Duoset ELISA Kit from R and D Systems, Cat. # DY202E.
Compounds 1-90 were tested in a whole cell functional assay for PKC mediated IL-2 production as follows. Human primary T cell isolation and culture: Human primary T cells were prepared as follows. Whole blood was obtained from a healthy volunteer, mixed 1:1 with PBS, layered on to Ficoll Hypaque (Amersham Pharmacia Biotech, Piscataway, N.J., Catalog #17-1440-03) in 2:1 blood/PBS:ficoll ratio and centrifuged for 30 minutes at 4° C. at 1750 rpm. The cells at the serum: ficoll interface were recovered and washed twice with 5 volumes of PBS. These freshly isolated human peripheral blood mononuclear cells were cultured in Yssel's medium containing 40 U/ml IL2 in a flask pre-coated with 1 μg/ml αCD3 and 5 μg/ml αCD28 (Anti-Human CD3, BD Pharmingen Catalog #555336, Anti-Human CD28, Beckman Coulter Catalog # IM1376). The cells were stimulated for 3-4 days, then transferred to a fresh flask and maintained in RPMI (RPMI-1640 with L-Glutamine; Mediatech, Inc., Herndon Va., cat. #10-040-CM) with 10% FBS and 40 U/ml IL-2. The primary T-cells were then washed twice with PBS to remove the IL-2.
as §1, with “Primary T cell stimulation and IL2 ELISA: Human primary” for “Human primary”, “compound in Yssel's medium for 1” for “compound in RPMI-1640 with L-Glutamine and 10% FBS for 1”, “ionomycin in Yssels (for final” for “ionomycin in RPMI-1640 with L-Glutamine and 10% FBS (for final”, “and 0.1 uM ionomycin, both” for “and 0.1 μM ionomycin, both”

[1] = Homo sapiens, T-cell, 24 h, IL-2 production, human primary T cells stimulated with αCD3 and αCD28, 24 hours, IL-2 by ELISA, read-out: EC50
[2] = Homo sapiens, T-cell, human primary T cells stimulated with αCD3 and αCD28, IL-2 by ELISA, read-out: EC50 (blocked IL-2 production)
[3] = IL-2 production, human primary T cells stimulated with αCD3 and αCD28, 24 hours, IL-2 by ELISA, read-out: EC50

EC50 [1] [µM]	EC50 [2] [µM]	EC50 [3] [µM]	Compound
< 1	< 10	–	CC1C(Nc2nc(Nc3cc(-n4nnn(C)c4=O)c(C4CC4)cc3F)ncc2F)CC(C)(C)N2CCCC12 (single isomer, unassigned) [Compound 69, 1-(5-(5-Fluoro-4-(octahydro-5,5,8-trimethylindolizin-7-ylamino)pyrimidin-2-ylamino)-2-cyclopropyl-4-fluorophenyl)-4-methyl-1H-tetrazol-5(4H)-one]
< 10	< 10	–	Cc1nnnn1-c1cc(Nc2ncc(F)c(NC3CC(C)(C)N4CCCC4C3C)n2)ccc1F (single isomer, unassigned) [Compound 70, 5-Fluoro-N2-(4-fluoro-3-(5-methyl-1H-tetrazol-1-yl)phenyl)-N4-(octahydro-5,5,8-trimethylindolizin-7-yl)pyrimidine-2,4-diamine]
–	–	< 0.5	CC1(C)Oc2ccc(Nc3ncc(F)c(NC4CC5CCCN5C(C)(C)C4)n3)cc2-n2nnnc21 (stereo not drawn) [Compound 1, N2-(4,4-dimethyl-4H-benzo[b]tetrazolo[1,5-d][1,4]oxazin-8-yl)-5-fluoro-N4-(octahydro-5,5-dimethylindolizin-7-amine)pyrimidine-2,4-diamine]
–	–	< 1	CC1(C)Oc2ccc(Nc3ncc(F)c(NC4CC5CCCN5C(C)(C)C4)n3)cc2-n2nnnc21 (stereo not drawn) [Compound 3, N2-(4,4-dimethyl-4H-benzo[b]tetrazolo[1,5-d][1,4]oxazin-8-yl)-5-fluoro-N4-(octahydro-5,5-dimethylindolizin-7-amine)pyrimidine-2,4-diamine]
–	–	< 10	CC1(C)Oc2ccc(Nc3ncc(F)c(NC4CC5CCCN5C(C)(C)C4)n3)cc2-n2nnnc21 (stereo not drawn) [Compound 4, N2-(4,4-dimethyl-4H-benzo[b]tetrazolo[1,5-d][1,4]oxazin-8-yl)-5-fluoro-N4-(octahydro-5,5-dimethylindolizin-7-amine)pyrimidine-2,4-diamine]
–	–	< 0.5	CC(C)N1CCC(Oc2ccc(Nc3ncc(F)c(NC4CC5CCCN5C(C)(C)C4)n3)cc2OC(F)F)CC1 (stereo not drawn) [Compound 6, (R/S, S/R, R/R, S/S)—N^2-(4-(1-isopropylpiperidin-4-yloxy)-3-(difluoromethoxy)phenyl)-5-fluoro-N^4-(octahydro-5,5-dimethylindolizin-7-yl)pyrimidine-2,4-diamine]
–	–	< 10	CC(C)N1CCC(Oc2ccc(Nc3ncc(F)c(NC4CC5CCCN5C(C)(C)C4)n3)cc2OC(F)F)CC1 (stereo not drawn) [Compound 7, (R/S, S/R, R/R, S/S)—N^2-(4-(1-isopropylpiperidin-4-yloxy)-3-(difluoromethoxy)phenyl)-5-fluoro-N^4-(octahydro-5,5-dimethylindolizin-7-yl)pyrimidine-2,4-diamine]
–	–	< 1	CC(C)N1CCC(Oc2ccc(Nc3ncc(F)c(NC4CC5CCCN5C(C)(C)C4)n3)cc2OC(F)F)CC1 (stereo not drawn) [Compound 8, (R/S, S/R, R/R, S/S)—N^2-(4-(1-isopropylpiperidin-4-yloxy)-3-(difluoromethoxy)phenyl)-5-fluoro-N^4-(octahydro-5,5-dimethylindolizin-7-yl)pyrimidine-2,4-diamine]
–	–	< 0.5	CC(C)N1CCC(Oc2ccc(Nc3ncc(F)c(NC4CC5CCCN5C(C)(C)C4)n3)cc2OC(F)F)CC1 (stereo not drawn) [Compound 9, (R/S, S/R, R/R, S/S)—N^2-(4-(1-isopropylpiperidin-4-yloxy)-3-(difluoromethoxy)phenyl)-5-fluoro-N^4-(octahydro-5,5-dimethylindolizin-7-yl)pyrimidine-2,4-diamine]
–	–	< 0.5	CC(C)N1CCC(Oc2ccc(Nc3ncc(F)c(NC4CC5CCCN5C(C)(C)C4)n3)cc2OC(F)F)CC1 (stereo not drawn) [Compound 10, (R/S, S/R, R/R, S/S)—N^2-(4-(1-isopropylpiperidin-4-yloxy)-3-(difluoromethoxy)phenyl)-5-fluoro-N^4-(octahydro-5,5-dimethylindolizin-7-yl)pyrimidine-2,4-diamine]
–	–	< 10	COc1cc(Nc2ncc(F)c(NC3CC4CCCN4C(C)(C)C3)n2)cc(-n2nnnc2C)c1 (stereo not drawn) [Compound 11, (R/S, S/R, R/R, S/S)-5-fluoro-N4-(octahydro-5,5-dimethylindolizin-7-yl)N2-(3-methoxy-5-(5-methyl-1H-tetrazol-1-yl)phenyl)pyrimidine-2,4-diamine]
–	–	< 1	COc1cc(Nc2ncc(F)c(NC3CC4CCCN4C(C)(C)C3)n2)cc(-n2nnnc2C)c1 (stereo not drawn) [Compound 12, (R/S, S/R, R/R, S/S)-5-fluoro-N4-(octahydro-5,5-dimethylindolizin-7-yl)N2-(3-methoxy-5-(5-methyl-1H-tetrazol-1-yl)phenyl)pyrimidine-2,4-diamine]
–	–	< 0.5	Cc1ncc(Nc2ncc(F)c(NC3CC4CCCN4C(C)(C)C3)n2)cc1-n1nnnc1C (stereo not drawn) [Compound 15]
< 1	< 10	–	Cn1nnn(-c2cc(Nc3ncc(F)c(N[C@H]4C[C@H]5CCCN5C(C)(C)C4)n3)c(F)cc2C2CC2)c1=O [Compound 18, 1-(5-(4-((7S,8aR)-octahydro-5,5-dimethylindolizin-7ylamino)-5-fluoropyrimidin-2-ylamino)-2-cyclopropyl-4-fluorophenyl)-4-methyl-1H-tetrazol-5(4H)-one]
< 0.5	< 10	–	COc1cc(F)c(Nc2ncc(F)c(N[C@@H]3C[C@@H]4CCCN4C(C)(C)C3)n2)cc1-n1nnn(C)c1=O [Compound 22, 1-(5-(4-((7R,8aS)-5,5-dimethyl-octahydroindolizin-7-ylamino)-5-fluoropyrimidin-2-ylamino)-4-fluoro-2-methoxyphenyl)-4-methyl-1H-tetrazol-5(4H)-one]
< 0.1	< 10	–	CC(C)Oc1cc(F)c(Nc2ncc(F)c(N[C@@H]3C[C@@H]4CCCN4C(C)(C)C3)n2)cc1-n1nnn(C)c1=O [Compound 23, 1-(5-(4-((7R,8aS)-5,5-dimethyl-octahydroindolizin-7-ylamino)-5-fluoropyrimidin-2-ylamino)-4-fluoro-2-isopropoxyphenyl)-4-methyl-1H-tetrazol-5(4H)-one]
< 10	< 10	–	Cn1nnn(-c2cc(Nc3ncc(F)c(NC4CCN5C(CCC5(C)C)C4)n3)c(F)cc2C2CC2)c1=O (stereo not drawn) [Compound 26]
–	–	< 10	Cn1nnn(-c2cc(Nc3ncc(F)c(NC4CCN5CCCC5C4)n3)c(F)cc2C2CC2)c1=O (stereo not drawn) [Compound 29]
> 10	< 10	–	Cn1nnn(-c2cc(Nc3ncc(F)c(NC4CC(=O)N5C(CCC5(C)C)C4)n3)c(F)cc2C2CC2)c1=O (stereo not drawn) [Compound 30]
< 10	< 10	–	Cn1nnn(-c2cc(Nc3ncc(F)c(N[C@H]4C[C@@H]5CC(F)(F)CN5C(C)(C)C4)n3)c(F)cc2C2CC2)c1=O [Compound 42, 1-(5-(4-((7S,8aR)-2,2-difluoro-octahydro-5,5-dimethylindolizin-7-ylamino)-5-fluoropyrimidin-2-ylamino)-2-cyclopropyl-4-fluorophenyl)-4-methyl-1H-tetrazol-5(4H)-one]
< 10	< 10	–	CC1(C)C[C@@H](Nc2nc(Nc3cc(-n4cnnn4)c(C4CC4)cc3F)ncc2F)C[C@@H]2CC(F)(F)CN21 [Compound 43, N^2-(4-cyclopropyl-2-fluoro-5-(1H-tetrazol-1-yl)phenyl)-5-fluoro-N^4-((7S,8aR)-2,2-difluoro-octahydro-5,5-dimethylindolizin-7-yl)pyrimidine-2,4-diamine]
